This note sets out measurements from patent publication US5968817A, “DNA encoding serotonin receptors” (priority 1993, dated 1999).

Where two headings read alike, the source gives them in different places.

The target in test [1] is T1, MR77 serotonin receptor (5-HT1E-Like) (Rattus norvegicus, UniProt P30940).
T1 construct: expressed in transfected cells; host or cells: CosM6 (subclone of COS-7), transient, vector pCMV4
T1 sequence (P30940 1-366): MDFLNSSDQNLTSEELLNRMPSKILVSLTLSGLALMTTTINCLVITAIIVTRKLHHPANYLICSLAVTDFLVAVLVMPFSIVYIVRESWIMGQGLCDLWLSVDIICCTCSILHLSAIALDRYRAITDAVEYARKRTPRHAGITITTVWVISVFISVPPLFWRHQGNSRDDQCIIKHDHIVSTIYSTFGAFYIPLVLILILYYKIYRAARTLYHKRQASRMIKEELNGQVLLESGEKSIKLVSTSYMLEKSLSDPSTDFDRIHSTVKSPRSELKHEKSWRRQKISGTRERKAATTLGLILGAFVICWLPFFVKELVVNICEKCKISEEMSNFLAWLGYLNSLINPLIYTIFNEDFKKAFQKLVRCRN
The experiment in a line: [125I]-LSD competition binding to membranes of CosM6 cells expressing MR77.

Test [2] addresses T2, REC20 serotonin receptor (5-HT6) (Rattus norvegicus, UniProt P32305).
T2 construct: encodes a putative protein of 435 amino acids; expressed in transfected cells; host or cells: CosM6 (subclone of COS-7), transient, vector pCMV4
The experiment in a line: [125I]-LSD competition binding to membranes of CosM6 cells expressing REC20.

The target of test [3] is T3, MR22 serotonin receptor (5-HT5β) (Rattus norvegicus, UniProt P35365).
T3 construct: contains an open reading frame (ORF) encoding 370 amino acids; expressed in transfected cells; host or cells: CosM6 (subclone of COS-7), transient, vector pCMV4
The test can be described thus: [125I]-LSD competition binding to membranes of CosM6 cells expressing MR22.

Test [4] has as its system suprachiasmatic nucleus (SCN) neuronal activity. The experiment in a line: Effects of serotonergic agents on circadian rhythm of neuronal activity in suprachiasmatic nucleus slices. The conditions noted are these: for effect of antagonist on the 8-OH-DPAT-dependent phase shift: antagonist 15 min before, during and 15 min after 1 hour 8-OH-DPAT. The procedure: This was followed by the normal perfusion medium. Horizontal bars: time of lights-off in donor colony; vertical bars: time of treatment; dotted line: mean time of peak in untreated slices.
The effects of serotinergic agents on the neuronal activity as measured against circadian time in the suprachiasmatic nucleus (SCN) were measured. […] This was followed by the normal perfusion medium.

Test [5] has as its target T4, REC17 serotonin receptor (5-HT5α) (Rattus norvegicus, UniProt P35364).
T4 construct: contains an ORF encoding 357 amino acids; expressed in transfected cells; host or cells: CosM6 (subclone of COS-7), transient, vector pCMV4
The test can be described thus: [125I]-LSD competition binding to membranes of CosM6 cells expressing REC17.

The mark [6] stands for this setting: CosM6 membranes, 1 nM [125I]-LSD, 60 min 37° C., read-out: IC50 for competition with 125I-LSD, Rec20.
Where [7] appears, read: CosM6 membranes, 1 nM [125I]-LSD, 60 min 37° C., read-out: IC50 for competition with 125I-LSD, MR77.

T2 sequence (P32305 1-435): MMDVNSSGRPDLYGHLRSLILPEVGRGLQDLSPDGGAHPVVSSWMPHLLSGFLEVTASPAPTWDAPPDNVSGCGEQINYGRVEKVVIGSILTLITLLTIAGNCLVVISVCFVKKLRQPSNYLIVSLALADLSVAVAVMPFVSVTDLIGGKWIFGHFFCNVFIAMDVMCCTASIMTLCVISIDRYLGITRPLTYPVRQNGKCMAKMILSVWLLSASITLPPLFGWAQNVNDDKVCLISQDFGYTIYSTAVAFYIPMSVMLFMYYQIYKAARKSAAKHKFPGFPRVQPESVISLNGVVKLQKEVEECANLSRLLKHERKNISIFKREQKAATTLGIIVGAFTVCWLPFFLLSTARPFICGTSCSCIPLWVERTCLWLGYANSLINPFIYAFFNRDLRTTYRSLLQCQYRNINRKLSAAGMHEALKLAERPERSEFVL
T4 sequence (P35364 whole entry): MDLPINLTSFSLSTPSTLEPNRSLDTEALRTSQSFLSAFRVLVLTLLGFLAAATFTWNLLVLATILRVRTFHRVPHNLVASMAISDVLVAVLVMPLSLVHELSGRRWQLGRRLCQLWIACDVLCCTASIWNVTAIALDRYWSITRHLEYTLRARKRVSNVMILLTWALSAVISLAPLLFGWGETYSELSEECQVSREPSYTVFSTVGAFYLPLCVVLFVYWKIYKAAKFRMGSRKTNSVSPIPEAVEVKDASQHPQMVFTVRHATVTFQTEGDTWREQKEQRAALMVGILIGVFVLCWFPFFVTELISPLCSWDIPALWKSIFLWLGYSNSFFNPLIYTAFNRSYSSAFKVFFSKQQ
T3 sequence (P35365 whole entry S4C/P322A): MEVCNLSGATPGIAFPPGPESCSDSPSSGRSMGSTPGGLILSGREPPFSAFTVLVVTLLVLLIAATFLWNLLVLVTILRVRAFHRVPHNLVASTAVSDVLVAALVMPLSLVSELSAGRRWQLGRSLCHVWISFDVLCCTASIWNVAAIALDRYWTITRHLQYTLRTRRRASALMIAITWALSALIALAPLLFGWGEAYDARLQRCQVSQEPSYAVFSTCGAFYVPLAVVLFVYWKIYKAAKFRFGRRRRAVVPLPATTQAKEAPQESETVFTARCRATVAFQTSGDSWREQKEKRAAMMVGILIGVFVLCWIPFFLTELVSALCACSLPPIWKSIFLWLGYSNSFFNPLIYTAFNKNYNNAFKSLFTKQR

For the compound `CN1C[C@H](C(=O)N[C@]2(C)O[C@@]3(O)[C@@H]4CCCN4C(=O)[C@H](Cc4ccccc4)N3C2=O)C=C2c3cccc4[nH]cc(c34)C[C@H]21` [Ergotamine], the IC50 is 55 nM in test [1], 33 nM in test [2] and 22 nM in test [3]. Moreover, the “sensitivity of MR22 to the ligand (in words)” value (“sensitivity of MR22” for short) in test [3] is “sensitive”.

In the case of `CC(C)NCC(O)COc1cccc2[nH]ccc12` (stereo not drawn) [Pindolol], the “effect of antagonist on the 8-OH-DPAT-dependent phase shift” value in test [4] is recorded as “has no effect”. Further, the IC50 in test [2] (setting [6]) was greater than 1000 nM.

In the case of `CCN(CC)C(=O)[C@@H]1C=C2c3cccc4[nH]c([125I])c(c34)C[C@H]2N(C)C1` [[^125 I]-LSD], the “binding of [125I]-LSD to MR77 broken cell preparations (in words)” value in test [1] (transfected CosM6 cells) is reported as “saturable binding”. Moreover, in test [2] (transfected CosM6 cells), the “binding of [125I]-LSD to REC20 broken cell preparations (in words)” value is “saturable binding”. Also, the “binding of [125I]-LSD to REC17 broken cell preparations (in words)” value in test [5] (transfected CosM6 cells) is reported as “saturable binding”. The “binding of [125I]-LSD to MR22 broken cell preparations (in words)” value in test [3] (transfected CosM6 cells) is “saturable binding”.

Consider `CNS(=O)(=O)Cc1ccc2[nH]cc(CCN(C)C)c2c1` [Sumatriptan], for which the “sensitivity of radiolabeled LSD binding to MR77 to the ligand (in words)” value (from here on “sensitivity … to MR77 to the ligand (in words)”) in test [1] was “sensitive”. Also, the IC50 in test [2] (setting [6]), in test [5] and in test [3] was greater than 1000 nM each time. Further, the “sensitivity of REC17 to the ligand (in words)” value (shortened to “sensitivity of REC17”) in test [5] is “insensitive”. The “sensitivity of MR22” value in test [3] is “insensitive”.

With `COC(=O)[C@@H]1[C@H]2C[C@H]3c4[nH]c5ccccc5c4CCN3C[C@@H]2CC[C@@H]1O` [Yohimbine], the IC50 in test [1] (setting [7]) is 570 nM.

As for `NCCc1c[nH]c2ccc(C(N)=O)cc12` [Ligand 5-CT, 5-carboxyamidotryptamine], the “sensitivity … to MR77 to the ligand (in words)” value in test [1] is recorded as “insenstive”. The IC50 in test [1] (setting [7]) was greater than 1000 nM; in test [2] (setting [6]) it was 0.8 nM; in test [5], 20.4 nM; in test [3] it was 285 nM. Further, in test [2], the “sensitivity of radiolabeled LSD binding to REC20 to the ligand (in words)” value (from here on “sensitivity … to REC20 to the ligand (in words)”) is given as “displace”. In addition, in test [5], the “sensitivity of REC17” value is reported as “sensitive”. Moreover, the “sensitivity of MR22” value in test [3] is listed as “sensitive”.

Regarding `Cc1nc2sccn2c(=O)c1CCN1CCC(=C(c2ccc(F)cc2)c2ccc(F)cc2)CC1` [Ritanserin], the “effect of antagonist on the 8-OH-DPAT-dependent phase shift” value in test [4] is reported as “blocks”. The IC50 in test [2] (setting [6]) is 60 nM.

With `CC[C@@H](CO)NC(=O)[C@@H]1C=C2c3cccc4c3c(cn4C)C[C@H]2N(C)C1` [Methysergide], the half-maximal inhibitory concentration (IC50) in test [1] was 14 nM; in test [2], 32 nM; in test [5] it was 310 nM; in test [3], greater than 1000 nM.

With `CN1C[C@H](CNC(=O)OCc2ccccc2)C[C@@H]2c3cccc4c3c(cn4C)C[C@H]21` [Metergoline], the IC50 is 535 nM in test [1] (setting [7]), 17 nM in test [2] (setting [6]), greater than 1000 nM in test [5] and greater than 1000 nM in test [3].

Take `NCCc1c[nH]c2ccc(O)cc12` [Ligand 5-HT, 5-hydroxytryptamine]: the half-maximal inhibitory concentration (IC50) in test [1] (setting [7]) was 70 nM; in test [5], 380 nM.

For `CCCN(CCC)C1CCc2cccc(O)c2C1` (stereo not drawn) [Ligand 8-OH-DPAT], the “sensitivity … to MR77 to the ligand (in words)” value in test [1] is “insenstive”. Also, the “phase advance in the circadian rhythm of spontaneous neuronal activity in the SCN” value in test [4] (slice bath treatment for 1 hour) was 2 to 3 h. In addition, in test [2], the “sensitivity … to REC20 to the ligand (in words)” value is given as “displace”. Also, the IC50 in test [2] (setting [6]) amounted to 97 nM. In test [5], the IC50 is greater than 1000 nM and the “sensitivity of REC17” value is reported as “insensitive”. Besides, in test [3], the IC50 is greater than 1000 nM and the “sensitivity of MR22” value is given as “insensitive”.

For `CN1C[C@@H](NS(=O)(=O)N(C)C)C[C@@H]2c3cccc4c3c(cn4C)C[C@H]21` [Mesulergine], the IC50 was greater than 1000 nM in test [1] (setting [7]), 17 nM in test [2] (setting [6]), greater than 1000 nM in test [5] and greater than 1000 nM in test [3].

As for `O=C(c1ccc(F)cc1)C1CCN(CCn2c(=O)[nH]c3ccccc3c2=O)CC1` [ketanserin], the “sensitivity … to REC20 to the ligand (in words)” value in test [2] was “sensitive”.

In the case of `CSc1ccc2c(c1)C(N1CCN(C)CC1)Cc1ccccc1S2` (stereo not drawn) [Methiothepin], the IC50 in test [1] (setting [7]) was greater than 1000 nM. Moreover, in test [5], the IC50 amounted to 45 nM and the “sensitivity of REC17” value is “sensitive”. In addition, the “sensitivity of MR22” value in test [3] is reported as “sensitive”.
